Source: the NIST ThermoML archive (doi:10.1016/j.jct.2013.07.006)

Legend:
[1] = for molar entropy: 101.33 kPa, Vacuum adiabatic calorimetry
[2] = molar heat capacity at constant pressure; conditions: 101.33 kPa, Vacuum adiabatic calorimetry

[Cl][Ru-2]([Cl])([Cl])([Cl])([Cl])[Cl].[NH4+].[NH4+] [diammonium hexachlororuthenate]
Conditions	molar entropy, [1] [J/K/mol]	molar heat capacity at constant pressure, [2] [J/K/mol]
5 K, Crystal 2	0.1106	0.3475
5.89 K, Crystal 2	–	0.5877
7.09 K, Crystal 2	–	1.079
8.03 K, Crystal 2	–	1.495
9.46 K, Crystal 2	–	2.313
10 K, Crystal 2	0.9395	2.661
10.8 K, Crystal 2	–	3.236
11.99 K, Crystal 2	–	4.23
13.2 K, Crystal 2	–	5.407
14.5 K, Crystal 2	–	6.916
15 K, Crystal 2	2.827	7.358
15.9 K, Crystal 2	–	8.589
17.35 K, Crystal 2	–	10.37
18.81 K, Crystal 2	–	12.31
20 K, Crystal 2	5.82	13.97
20.31 K, Crystal 2	–	14.26
21.81 K, Crystal 2	–	16.45
23.4 K, Crystal 2	–	18.76
25 K, Crystal 2	9.703	21.24
25.1 K, Crystal 2	–	21.38
26.81 K, Crystal 2	–	24.18
28.54 K, Crystal 2	–	26.91
30 K, Crystal 2	14.44	29.49
30.27 K, Crystal 2	–	30.01
32.02 K, Crystal 2	–	33.06
33.91 K, Crystal 2	–	36.87
35 K, Crystal 2	19.68	38.87
35.95 K, Crystal 2	–	40.66
37.99 K, Crystal 2	–	44.72
40 K, Crystal 2	25.51	48.89
40.05 K, Crystal 2	–	48.96
42.12 K, Crystal 2	–	53.55
44.2 K, Crystal 2	–	58.17
45 K, Crystal 2	31.89	59.91
46.3 K, Crystal 2	–	62.77
48.41 K, Crystal 2	–	67.6
50 K, Crystal 2	38.8	71.36
50.8 K, Crystal 2	–	73.15
53.47 K, Crystal 2	–	79.64
55 K, Crystal 2	46.15	83.48
56.15 K, Crystal 2	–	86.22
58.85 K, Crystal 2	–	92.96
60 K, Crystal 2	53.94	95.95
61.55 K, Crystal 2	–	100.02
64.27 K, Crystal 2	–	107.34
65 K, Crystal 2	62.15	109.25
67.13 K, Crystal 2	–	114.99
70 K, Crystal 2	70.73	122.72
70.82 K, Crystal 2	–	125.13
75 K, Crystal 2	79.67	136.44
75.14 K, Crystal 2	–	136.94
79.45 K, Crystal 2	–	149.83
80 K, Crystal 2	88.97	151.49
83.79 K, Crystal 2	–	162.3
85 K, Crystal 2	98.53	165.79
88.18 K, Crystal 2	–	174.11
90 K, Crystal 2	108.42	179.09
92.84 K, Crystal 1	–	184.67
92.84 K, Crystal 2	–	184.67
95 K, Crystal 1	118.32	184.75
97.88 K, Crystal 1	–	182
100 K, Crystal 1	127.71	180.76
103.06 K, Crystal 1	–	178.1
105 K, Crystal 1	136.44	179.26
108.18 K, Crystal 1	–	182.59
110 K, Crystal 1	144.92	184.83
113.23 K, Crystal 1	–	188.41
115 K, Crystal 1	153.24	190.49
118.27 K, Crystal 1	–	194.14
120 K, Crystal 1	161.47	196.14
123.32 K, Crystal 1	–	199.88
125 K, Crystal 1	169.62	201.54
128.39 K, Crystal 1	–	205.12
130 K, Crystal 1	177.6	206.62
133.46 K, Crystal 1	–	209.77
135 K, Crystal 1	185.5	211.35
138.55 K, Crystal 1	–	214.6
140 K, Crystal 1	193.31	215.93
143.8 K, Crystal 1	–	219.17
145 K, Crystal 1	200.96	220.17
149.2 K, Crystal 1	–	223.33
150 K, Crystal 1	208.44	224.24
154.62 K, Crystal 1	–	227.65
160 K, Crystal 1	223.16	231.48
160.04 K, Crystal 1	–	231.39
165.48 K, Crystal 1	–	235.13
170 K, Crystal 1	237.38	238.13
170.9 K, Crystal 1	–	238.71
176.33 K, Crystal 1	–	242.45
180 K, Crystal 1	251.18	244.78
181.77 K, Crystal 1	–	245.78
187.21 K, Crystal 1	–	249.27
190 K, Crystal 1	264.65	251.43
192.66 K, Crystal 1	–	253.09
198.19 K, Crystal 1	–	256.75
200 K, Crystal 1	277.7	257.83
203.88 K, Crystal 1	–	260.16
209.62 K, Crystal 1	–	263.57
210 K, Crystal 1	290.43	263.74
215.39 K, Crystal 1	–	266.9
220 K, Crystal 1	302.81	269.06
221.19 K, Crystal 1	–	269.39
226.95 K, Crystal 1	–	272.55
230 K, Crystal 1	314.87	274.21
232.71 K, Crystal 1	–	275.46
238.48 K, Crystal 1	–	277.79
240 K, Crystal 1	326.68	278.37
244.25 K, Crystal 1	–	279.78
250 K, Crystal 1	338.07	281.53
250.07 K, Crystal 1	–	281.53
256.04 K, Crystal 1	–	283.36
260 K, Crystal 1	349.21	284.44
262.1 K, Crystal 1	–	285.02
268.12 K, Crystal 1	–	286.68
270 K, Crystal 1	359.93	287.18
274.34 K, Crystal 1	–	288.18
280 K, Crystal 1	370.49	290.18
280.52 K, Crystal 1	–	290.51
286.4 K, Crystal 1	–	292.01
290 K, Crystal 1	380.72	293.09
292.34 K, Crystal 1	–	293.92
298.15 K, Crystal 1	388.87	295.66
298.3 K, Crystal 1	–	295.25
300 K, Crystal 1	390.7	296.16
304.21 K, Crystal 1	–	297.33
310 K, Crystal 1	400.43	298.91
310.08 K, Crystal 1	–	298.91
315.97 K, Crystal 1	–	300.4
320 K, Crystal 1	409.99	301.15
321.87 K, Crystal 1	–	301.57
325 K, Crystal 1	414.64	302.23

Conditions	Triple point temperature [K]
[1], Crystal 2, Adiabatic calorimetry	92.84
